Consider 2 molecules from US20050276812A1, “Antibody-drug conjugates and methods” (Genentech, Inc., priority 2004, published 2005).

SMILES strings stand for the structures.

Data set [1] relates to SK-BR-3 and BT-474 breast cancer cells. The data set can be described thus: in vitro cellular proliferation assay of free drug and drug-linker. Format: cell-based. An excerpt: Pharmaceutical formulations of a therapeutic antibody-drug conjugate (ADC) may contain certain amounts of unreacted drug moiety (D), antibody-linker intermediate (Ab-L), and/or drug-linker intermediate (D-L), as a consequence of incomplete purification and separation of excess reagents, impurities, and by-products, in the process of making the ADC; or time/temperature hydrolysis or degradation upon storage of the bulk ADC or formulated ADC composition. […] Alternatively, or in addition to, it may contain a detectable amount of drug-linker intermediate DM1-SMCC. Alternatively, or in addition to, it may contain a detectable amount of the antibody, trastuzumab.
Efficacy of ADC were measured by a cell proliferation assay employing the following protocol (Promega Corp. Technical Bulletin TB288; Mendoza et al (2002) Cancer Res. 62:5485-5488): • 1. An aliquot of 100 μl of cell culture containing about 10^4 cells (SKBR-3, BT474, MCF7 or MDA-MB-468) in medium was deposited in each well of a 96-well, opaque-walled plate. • 2. Control wells were prepared containing medium and without cells. • 3. ADC was added to the experimental wells and incubated for 3-5 days. • 4. The plates were equilibrated to room temperature for approximately 30 minutes. • 5. A volume of CellTiter-Glo Reagent equal to the volume of cell culture medium present in each well was added. • 6. The contents were mixed for 2 minutes on an orbital shaker to induce cell lysis. • 7. The plate was incubated at room temperature for 10 minutes to stabilize the luminescence signal. • 8. Luminescence was recorded and reported in graphs as RLU=relative luminescence units.

The nature of data set [2]: 5-day acute toxicity study in rats. Format: in vivo, female Sprague-Dawley rats. The settings on record: free DM1, 160 μg/kg (Group 6).
Description: Antibody-drug conjugates and an ADC-minus control, “Vehicle”, were evaluated in an acute toxicity rat model. Toxicity of ADC was investigated by treatment of female Sprague-Dawley rats with the ADC and subsequent inspection and analysis of the effects on various organs. Based on gross observations (body weights), clinical pathology parameters (serum chemistry and hematology) and histopathology, the toxicity of ADC may be observed, characterized, and measured.
Body weight was measured daily. Clinical chemistry, serum enzymes and hematology analysis was conducted on days 3 and 5; concluding with complete necropsy with histopathological assessment.
Animals were injected on day 1, complete chemistry and hematology profiles were obtained at baseline, day 3 and day 5 and a complete necropsy was performed on day 5. Routine histology was performed on three random animals for each group for the following tissues: sternum, liver, kidney, thymus, spleen, large and small intestine.

As to `COc1cc2cc(c1Cl)N(C)C(=O)C[C@H](OC(=O)[C@H](C)N(C)C(=O)CCS)[C@]1(C)O[C@H]1[C@H](C)[C@@H]1C[C@@](O)(NC(=O)O1)[C@H](OC)/C=C/C=C(\C)C2` [DM1, N^2′-deacetyl-N^2′-(3-mercapto-1-oxopropyl)-maytansine], in data set [1], it took 0.0045 µM to reach half-maximal inhibition (IC50). For the same molecule, the severity of toxicity entry in data set [2] was “less than that seen in animals of Group 2”.

`COc1cc2cc(c1Cl)N(C)C(=O)C[C@H](OC(=O)[C@H](C)N(C)C(=O)CCSC1CC(=O)N(CC3CCC(C(=O)ON4C(=O)CCC4=O)CC3)C1=O)[C@]1(C)O[C@H]1[C@H](C)[C@@H]1C[C@@](O)(NC(=O)O1)[C@H](OC)/C=C/C=C(\C)C2` (stereo partly shown) [DM1-SMCC]: in data set [1], half-maximal inhibition (IC50) required 0.05 µM and the “times less potent in cell killing than free drug DM1” value is recorded as “about 20 times”.
